Experimental data as given in patent US8389557B2, “Triazole derivatives useful as Axl inhibitors” (Rigel Pharmaceuticals, Inc., priority 2005, dated 2013).

Target: T1, Axl (Homo sapiens, UniProt P30530)
T1 construct: endogenous in cells; host or cells: HeLa cells
T1 sequence (P30530 26-894): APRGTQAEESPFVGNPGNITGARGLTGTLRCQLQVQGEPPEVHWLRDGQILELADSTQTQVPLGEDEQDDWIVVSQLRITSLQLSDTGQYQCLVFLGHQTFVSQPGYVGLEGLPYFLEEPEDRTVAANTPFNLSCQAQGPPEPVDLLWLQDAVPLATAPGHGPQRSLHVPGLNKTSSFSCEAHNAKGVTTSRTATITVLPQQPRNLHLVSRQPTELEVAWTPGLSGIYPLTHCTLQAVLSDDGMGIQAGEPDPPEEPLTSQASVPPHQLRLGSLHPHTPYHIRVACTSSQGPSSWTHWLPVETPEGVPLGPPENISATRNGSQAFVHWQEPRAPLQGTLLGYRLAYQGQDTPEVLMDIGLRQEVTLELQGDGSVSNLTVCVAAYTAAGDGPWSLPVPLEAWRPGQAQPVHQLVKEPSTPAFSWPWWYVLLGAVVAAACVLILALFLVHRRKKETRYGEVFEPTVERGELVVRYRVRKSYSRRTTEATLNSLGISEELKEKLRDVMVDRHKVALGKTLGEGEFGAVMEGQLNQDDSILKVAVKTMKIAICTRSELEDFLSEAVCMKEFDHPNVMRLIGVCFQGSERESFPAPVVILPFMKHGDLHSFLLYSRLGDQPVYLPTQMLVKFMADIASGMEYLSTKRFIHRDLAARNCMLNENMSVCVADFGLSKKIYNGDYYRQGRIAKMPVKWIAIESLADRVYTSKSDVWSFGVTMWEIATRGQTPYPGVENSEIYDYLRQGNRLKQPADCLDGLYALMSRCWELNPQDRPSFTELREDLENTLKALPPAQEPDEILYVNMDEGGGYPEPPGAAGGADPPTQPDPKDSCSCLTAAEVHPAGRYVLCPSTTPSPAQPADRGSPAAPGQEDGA
Assay: Phospho-Akt in-cell Western assay (inhibition of Axl activity)
Assay type: cell-based
Method in brief: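 HeLa cells on poly-L-lysine, starved 24 h in 0.5% FCS DMEM with Axl/Fc 500 ng/mL, pre-treated with compound 1 h at 37° C. Axl stimulated 5 min by anti-Axl/anti-mouse antibody cross-linking. Fixed cells probed with anti-phospho-Akt and HRP secondary, chemiluminescence read.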

[1] = Table 5, Hela cells, Axl antibody cross-linking stimulation, phospho-Akt chemiluminescence
[2] = inhibition of Axl activity, Table 1
[3] = Table 2, Hela cells, Axl antibody cross-linking stimulation, phospho-Akt chemiluminescence
[4] = inhibition of Axl activity, phospho-Akt in-cell Western assay, Table 1
[5] = Table 3, Hela cells, Axl antibody cross-linking stimulation, phospho-Akt chemiluminescence
[6] = Table 8, Hela cells, Axl antibody cross-linking stimulation, phospho-Akt chemiluminescence

Cc1cccc(C(=O)n2nc(Nc3ccc4oc(COC5CCCCO5)cc4c3)nc2N)c1 (centres unmarked) [compound 130, 5-amino-3-[N-(2-(tetrahydropyran-2-yloxy)methylbenzofuran-5-yl)-amino]-1-(3-(methyl)phenyl)carbonyl-1H-1,2,4-triazole]
IC50 [1]: 1 to 10 µM

CC(C)(C)OC(=O)NC1CCOc2ccc(Nc3nc(N)n(C(=O)c4ccc(C(C)(C)C)cc4)n3)cc21 (centres unmarked) [compound 273]
IC50 [1]: > 20 µM

Nc1nc(Nc2ccc(N3CCOCC3)cc2)nn1C(=O)c1cccc([N+](=O)[O-])c1 [compound 72, 5-amino-3-(4-(morpholin-4-yl)phenylamino)-1-(3-(nitro)phenyl)carbonyl-1H-1,2,4-triazole]
IC50 [2]: 1 to 10 µM

CN(C)c1ccc(C(=O)n2nc(NC3C4C=CC(C4)C3C(N)=O)nc2N)cc1 (centres unmarked) [compound 350, 5-amino-1-(4-(dimethylamino)phenyl)carbonyl-3-[(5-(aminocarbonyl)bicyclo[2.2.1]hept-2-en-6-yl)amino]-1H-1,2,4-triazole]
IC50 [1]: > 20 µM

CC(C)Oc1cccc(C(=O)n2nc(Nc3ccc(OCCN4CCCCC4)cc3)nc2N)c1 [compound 168, 5-amino-1-(3-(iso-propoxy)phenyl)carbonyl-3-[4-[2-(piperidin-1-yl)ethoxy]phenylamino]-1H-1,2,4-triazole]
IC50 [2]: < 1 µM

Cc1cccc(C(=O)n2nc(Nc3cccnc3)nc2N)c1 [compound 220, 5-amino-1-(3-methylphenyl)carbonyl-3-(pyridin-3-yl)amino-1H-1,2,4-triazole]
IC50 [1]: > 20 µM

Cc1ccc(C(=O)n2nc(N)nc2Nc2ccc(OC(C)C)cc2)cc1 [compound 56, 3-amino-5-[4-(iso-propoxy)phenylamino]-1-(4-(methyl)phenyl)carbonyl-1H-1,2,4-triazole]
IC50 [3]: > 20 µM

CC(C)(C)Oc1ccc(C(=O)n2nc(Nc3ccc(OCCN4CCOCC4)cc3)nc2N)cc1 [compound 267, 5-amino-1-(4-(tert-butoxy)phenyl)carbonyl-3-[4-[2-(morpholin-4-yl)ethoxy]phenylamino]-1H-1,2,4-triazole]
IC50 [4]: < 1 µM

COc1ccc(C(=O)n2nc(Nc3ccc4c(c3)OCCO4)nc2N)cc1C [compound 257, 5-amino-3-(1,4-benzodioxan-6-yl)amino-1-(3-methyl-4-methoxy)phenylcarbonyl-1H-1,2,4-triazole]
IC50 [2]: 1 to 10 µM

Nc1nc(Nc2ccc(OCCN3CCOCC3)cc2)nn1C(=O)c1ccc2cc[nH]c2c1 [compound 265, 5-amino-1-(1H-indol-6-yl)carbonyl-3-[4-[2-(morpholin-4-yl)ethoxy]phenylamino]-1H-1,2,4-triazole]
IC50 [5]: < 1 µM

Cc1ccc(C(=O)n2nc(Nc3ccc4c(c3)OCCO4)nc2N)cc1Cl [compound 249, 5-amino-1-[(3-chloro-4-methyl)phenyl]carbonyl-3-(1,4-benzodioxan-6-yl)-amino-1H-1,2,4-triazole]
IC50 [2]: > 20 µM

Cc1ccc(C(=O)n2nc(Nc3ccc(OCCN4CCCCC4)cc3)nc2N)cc1 [compound 53, 5-amino-1-(4-(methyl)phenyl)carbonyl-3-[4-[2-(piperidin-1-yl)ethoxy]phenylamino]-1H-1,2,4-triazole]
IC50 [2]: < 1 µM

COc1cccc(NC(=O)n2nc(Nc3ccc(OCCN4CCCC4)cc3)nc2N)c1 [compound 32, 5-amino-N-(3-methoxyphenyl)-3-[4-[2-(pyrrolidin-1-yl)ethoxy]phenylamino]-1H-1,2,4-triazole-1-carboxamide]
IC50 (Table 7, Hela cells, Axl antibody cross-linking stimulation, phospho-Akt chemiluminescence): < 1 µM

Nc1nc(Nc2ccc(N3CCOCC3)cc2)n(C(=O)c2cccc(Cl)c2)n1 [compound 75, 3-amino-1-(3-(chloro)phenyl)carbonyl-5-(4-(morpholin-4-yl)phenylamino)-1H-1,2,4-triazole]
IC50 [3]: > 20 µM

Nc1nc(Nc2ccc(OCCN3CC[C@H](F)C3)cc2)n(C(=O)c2ccc3cc[nH]c3c2)n1 [compound 389, 3-amino-1-(1H-indol-6-yl)carbonyl-5-[4-[2-((S)-3-fluoropyrrolidin-1-yl)ethoxy]phenylamino]-1H-1,2,4-triazole]
IC50 (Table 4, Hela cells, Axl antibody cross-linking stimulation, phospho-Akt chemiluminescence): < 1 µM

Cc1ccc(C(=O)n2nc(Nc3ccc(OCCN4CCCC4)cc3)nc2N)s1 [compound 284, 5-amino-1-(5-methylthien-2-yl)carbonyl-3-[4-[2-(pyrrolidin-1-yl)ethoxy]phenylamino]-1H-1,2,4-triazole]
IC50 [5]: < 1 µM

Nc1nc(Nc2ccc(OCCn3ccnc3)cc2)nn1C(=O)c1cc2ccccc2s1 [compound 379, 5-amino-1-(benzo[b]thiophen-2-yl)carbonyl-3-[4-[2-(imidazol-1-yl)ethoxy]phenylamino]-1H-1,2,4-triazole]
IC50 [5]: < 1 µM

Nc1nc(Nc2ccc(OCCN3CCCC3)cc2)nn1C(=O)c1ccc(-c2ccccc2)cc1 [compound 277, 5-amino-1-(4-(phenyl)phenyl)carbonyl-3-[4-[2-(pyrrolidin-1-yl)ethoxy]phenylamino]-1H-1,2,4-triazole]
IC50 [4]: < 1 µM

COc1ccc(NC(=O)n2nc(N)nc2Nc2ccc(OCCN3CCCCC3)cc2)cc1 [compound 184, 3-amino-N-(4-(methoxy)phenyl)-5-[4-[2-(piperidin-1-yl)ethoxy]phenylamino]-1H-1,2,4-triazole-1-carboxamide]
IC50 [6]: 1 to 10 µM

Nc1nc(Nc2ccc3c(c2)OCCO3)n(C(=O)c2ccc(OCCC3OCCO3)cc2)n1 [compound 213]
IC50 [3]: > 20 µM

CC(C)Oc1ccc(C(=O)n2nc(Nc3ccc(OCCn4ccnc4)cc3)nc2N)cc1 [compound 372, 5-amino-1-(4-(iso-propoxy)phenyl)carbonyl-3-[4-[2-(imidazol-1-yl)ethoxy]phenylamino]-1H-1,2,4-triazole]
IC50 [4]: < 1 µM

CC(C)Oc1ccc(C(=O)n2nc(Nc3ccc(N4CCCC4)cc3)nc2N)cc1 [compound 293, 5-amino-1-(4-(iso-propoxy)phenyl)carbonyl-3-[4-(pyrrolidin-1-yl)phenylamino]-1H-1,2,4-triazole]
IC50 [4]: 1 to 10 µM

Cc1cccc(C(=O)n2nc(Nc3ccc4c(c3)OCCO4)nc2N)c1 [compound 96, 5-amino-3-(1,4-benzodioxan-6-yl)amino-1-(3-(methyl)phenyl)carbonyl-1H-1,2,4-triazole]
IC50 [2]: 1 to 10 µM

Nc1nc(Nc2ccc3c(c2)OCCO3)nn1C(=O)c1cccc(OCCC2OCCO2)c1 [compound 210]
IC50 [2]: 1 to 10 µM

Cc1ccc(C(=O)n2nc(Nc3ccc(OCCN4CCCC4)cc3)nc2N)cn1 [compound #28, 5-Amino-1-(6-(methyl)pyridin-3-yl)carbonyl-3-[4-[2-(pyrrolidin-1-yl)ethoxy]phenylamino]-1H-1,2,4-triazole]
IC50 [5]: 1 to 10 µM

CN(C)CCOc1ccc(Nc2nc(N)n(C(=O)c3ccc(N(C)C)cc3)n2)cc1 [compound 87, 5-amino-3-[4-[2-(dimethylamino)ethoxy]phenylamino]-1-(4-(dimethylamino)phenyl)carbonyl-1H-1,2,4-triazole]
IC50 [4]: < 1 µM

CC(=O)N(C)c1ccc(Nc2nc(N)nn2C(=O)NC2CCCC2)cc1 [compound 178, 5-[4-(acetyl(methyl)amino)phenyl]amino-3-amino-N-cyclopentyl-1H-1,2,4-triazole-1-carboxamide]
IC50 [6]: > 20 µM

Nc1nc(Nc2ccc(OCCN3CCCC3)cc2)nn1C(=O)c1ccc2nn[nH]c2c1 [compound 281, 5-amino-1-(1H-benzo[d][1,2,3]triazol-5-yl)carbonyl-3-[4-[2-(pyrrolidin-1-yl)ethoxy]phenylamino]-1H-1,2,4-triazole]
IC50 [5]: 10 to 20 µM

Cc1cccc(C(=O)n2nc(Nc3ccc4[nH]c(C)cc4c3)nc2N)c1 [compound 255, 5-amino-3-(1H-2-methyl-indol-5-yl)amino-1-(3-methylphenyl)carbonyl-1H-1,2,4-triazole]
IC50 [1]: 1 to 10 µM

CC1(C)Oc2ccc(C(=O)n3nc(Nc4ccc(N5CCOCC5)cc4)nc3N)cc2NC1=O [compound 68, 5-amino-1-(2,2-dimethyl-2H-benzo[b][1,4]oxazin-3(4H)-on-6-yl)carbonyl-3-(4-(morpholin-4-yl)phenylamino)-1H-1,2,4-triazole]
IC50 [5]: 1 to 10 µM

Nc1nc(Nc2ccc3c(c2)OCCO3)nn1C(=O)c1ccc(C(F)(F)F)cc1 [compound 244, 5-amino-3-(1,4-benzodioxan-6-yl)amino-1-[(4-trifluoromethyl)phenyl]carbonyl-1H-1,2,4-triazole]
IC50 [2]: > 20 µM

CC(C)(C)c1ccc(C(=O)n2nc(Nc3ccc(OCCN4CCOCC4)cc3)nc2N)cc1 [compound 266, 5-amino-1-(4-(tert-butyl)phenyl)carbonyl-3-[4-[2-(morpholin-4-yl)ethoxy]phenylamino]-1H-1,2,4-triazole]
IC50 [4]: < 1 µM
